Consider four compounds from patent EP3283473B1, “GHRELIN O-ACYL TRANSFERASE INHIBITORS” (Eli Lilly and Company, priority 2015, dated 2016).

For this test, the target named is T1, human GOAT (Homo sapiens, UniProt Q96T53).
T1 construct: His; made in house; host or cells: Sf9 insect cells (baculovirus, pAN51 vector); microsomal membrane preparation
T1 sequence (Q96T53 1-435): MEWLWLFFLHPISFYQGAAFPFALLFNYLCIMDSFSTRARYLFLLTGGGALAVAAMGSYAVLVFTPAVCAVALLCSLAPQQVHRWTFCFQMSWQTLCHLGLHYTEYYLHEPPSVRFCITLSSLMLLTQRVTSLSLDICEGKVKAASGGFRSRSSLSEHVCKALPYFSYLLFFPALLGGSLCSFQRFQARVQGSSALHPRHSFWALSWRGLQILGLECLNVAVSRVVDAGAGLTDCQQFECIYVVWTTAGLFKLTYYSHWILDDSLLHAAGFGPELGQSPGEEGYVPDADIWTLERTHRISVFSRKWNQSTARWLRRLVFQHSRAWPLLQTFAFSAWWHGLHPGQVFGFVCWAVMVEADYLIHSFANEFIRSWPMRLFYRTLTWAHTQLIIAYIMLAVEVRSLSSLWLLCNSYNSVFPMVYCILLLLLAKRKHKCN
Put plainly: In vitro cell free human GOAT enzymatic assay. The test is classed as biochemical. The note with it: GOAT-His/sf9 membrane preparation. On the procedure: Human GOAT gene (Accession number: NM_001100916) is subcloned to pAN51 baculoviral expression vector. Baculovirus stock is prepared following the Bac-to-Bac Protocol provided by the vendor, Invitrogen, California, USA. Five mililiters of human GOAT baculoviral stock are added to 500 mL Sf9 cells in HyQ SFX-Insect™ media (HyClone catalog number SH30278.02) at the density of 1 × 10^6 cells per milliliter in a 2 L Erlenmeyer flask. The flask with human GOAT gene infected Sf9 cells is put on a plate shaker at 120 rpm at 28 °C for 48 hours. After 48 hours incubation, cells are centrifuged at 1,000xg for 10 min at 4 °C. The cell pellets are collected and stored at -80 °C in a freezer until ready for further processing.
One gram cell pellets are suspended in 9 mL chilled homogenization buffer (50 mM Tris-HCl, 250 mM sucrose, adjusted to pH 7.5 and sterile filtered through 0.2 µm Millipore filter). The cell suspension is transferred to a Dounce glass homogenizer. Cell pellets are homogenized with 40 strokes on ice. The homogenate is centrifuged at 3,000 rpm in a Beckman swing bucket rotor at 4 °C for 10 min to remove unbroken cells. The supernatant is collected and centrifuged at 40,000 xg for 1 hour at 4 °C. The resulting membrane pellet is suspended in the homogenization buffer using a Dounce glass homogenizer and stored at -20 °C in the freezer for the assay. For long term storage of the human GOAT enzyme membrane preparation, the suspended membrane is stored in a -80 °C freezer.
Prepare test compounds in DMSO to make up a 0.2 mM stock solution. Serially dilute the stock solution in DMSO to obtain a ten-point dilution curve with final compound concentrations ranging from 10 µM to 0.5 nM in a 96-well round-bottom plate. Prepare enzyme and substrate solutions in assay buffer (0.02% TWEEN™-20 in 50 mM Tris, pH 7.5/250 mM sucrose/1 mg/mL BSA/10 mM EDTA). Add diluted compound (1 µL) to each well of row A to N of a corresponding low protein binding 384 well plate. Add human GOAT substrate mix (10 µL), consisting of human desacyl-ghrelin-biotin (CPC Scientific Inc., 6.0 µM final), octanoyl-coenzyme A (CoA) (Sigma, 60 µM final) and an AG specific antibody (WO 2006/091381)(1.0 µg/mL final), to the compounds. Add GOAT-His/sf9 enzyme preparation, that has been prepared in assay buffer (9 µL), to each well of the plate containing substrate and test compounds resulting in a final concentration of 0.01 µg/mL to initiate the reaction. Incubate the mixture for 1 hour at RT on a gently rotating oscillator. Add 4M guanidine hydrochloride (20 µL) to all wells, mix, and incubate for 3 hours to stop the reaction.
Prepare ELISA plates (STREPTAVIDIN SPECTRAPLATE™ 384, Perkin Elmer) by blocking with 2% Heat-Inactivated FBS in PBS (40 µL) (Invitrogen) blocking buffer for 3 hours. Aspirate the blocking buffer from ELISA plate and add blocking buffer (23 µL) to columns 1-24, rows A-N. Reserve rows O and P for the acylghrelin standard curve. Add the reaction mix (2 µL) to the ELISA plates. Prepare a 10 point standard curve (biotin-labeled octanoyl-ghrelin) by serial 2X dilution in blocking buffer containing 0.2M Guanidine hydrochloride starting at 2.5 pM. Incubate the reaction mixture or biotin-labeled AG standard in the ELISA plate overnight at 4 °C. The following day, wash the plate 3× with wash buffer (0.1% TWEEN™-20/PBS, 100 µL per well in each wash cycle). […] Read plates at 450 nm using an ENVISION® Multilabel plate reader. […]
By IC20 is commonly meant the point of the concentration-response curve where the effect stands at 20%. Read a high IC20 as a need for much substance. `COC(=O)N[C@@H](C)C(=O)N1CCC(CCc2c(C)nc(C(F)(F)F)nc2N)CC1` [Example 20, Methyl N-[(1S)-2-[4-[2-[4-amino-6-methyl-2-(trifluoromethyl)pyrimidin-5-yl]ethyl]-1-pipaidyl]-1-methyl-2-oxo-ethyl]carbamate] had an IC20 of 615 nM. To `Cc1nc(C(F)(F)F)nc(N)c1CCC1CCN(C(=O)[C@H](C)NC(=O)CO)CC1` [Example 18, N-[(1S)-2-[4-[2-[4-Amino-6-methyl-2-(trifluoromethyl)pyrimidin-5-yl]ethyl]-1-piperidyl]-1-methyl-2-oxo-ethyl]-2-hydroxy-acetamide] belongs 276 nM; to `Cc1nc(C(F)(F)F)nc(N)c1CCC1CCN(C(=O)[C@H](C)NC(=O)c2nccnc2Cl)CC1` [Example 15, N-[(1S)-2-[4-[2-[4-Amino-6-methyl-2-(trifluoromethyl)pyrimidin-5-yl]ethyl]-1-piperidyl]-1-methyl-2-oxo-ethyl]-3-chloro-pyrazine-2-carboxamide], 55.7 nM.

In turn, `COc1ccccc1C(=O)N[C@@H](C)C(=O)N1CCC(CCc2c(C)nc(C(F)(F)F)nc2N)CC1` [Example 17, N-[(1S)-2-[4-[2-[4-Amino-6-methyl-2-(trifluoromethyl)pyrimidin-5-yl]ethyl]-1-piperidyl]-1-methyl-2-oxo-ethyl]-2-methoxy-benzamide] came in with an IC20 of 420 nM.
